Measurements published in patent US9732093B2, “FLAP modulators” (JANSSEN PHARMACEUTICA NV, priority 2013, dated 2017).

molecular target: human FLAP (Homo sapiens (Human), UniProt P20292); assay: FLAP binding assay (HTRF format); settings: human FLAP wild type membranes, HTRF format; Table 6 (additional runs)
Procedure: The ability of the compounds of the present invention to treat a FLAP-mediated disease and/or disorder, or associated symptoms or complications thereof, was determined using the following procedures. Binding assay data represent the average value obtained from two different assay plates, with samples run in duplicate on each plate. Human whole blood assay data represent a single replicate on an assay plate using whole blood from at least one healthy donor.
Data are expressed as a HTRF ratio.

Chain of human FLAP (P20292 whole entry): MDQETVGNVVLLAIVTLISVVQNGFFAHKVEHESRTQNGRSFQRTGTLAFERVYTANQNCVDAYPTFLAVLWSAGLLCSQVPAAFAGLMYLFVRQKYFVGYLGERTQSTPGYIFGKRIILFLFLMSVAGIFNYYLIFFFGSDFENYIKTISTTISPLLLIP

| Ki [µM] | Structure (SMILES) |
| --- | --- |
| 0.275 | CCOC(=O)c1ccc(COc2c(C3CCC3)ccc(-c3cnc(N)cn3)c2F)o1 [Example 73, Ethyl 5-{[3-(5-aminopyrazin-2-yl)-6-cyclobutyl-2-fluorophenoxy]methyl}furan-2-carboxylate] |
| 0.175 | CC(C)(C)OC(=O)N1CCC(COc2c(C3CCC3)ccc(-c3cnc(N)cn3)c2F)CC1 [Example 74, tert-Butyl 4-{[3-(5-aminopyrazin-2-yl)-6-cyclobutyl-2-fluorophenoxy]methyl}piperidine-1-carboxylate] |
| ~0.2 | Nc1cnc(-c2ccc(C3CCC3)c(OCc3cc(S(F)(F)(F)(F)F)ccc3F)c2F)cn1 [Example 77, 5-(4-Cyclobutyl-2-fluoro-3-{[2-fluoro-5-(pentafluoro-lambda˜6˜-sulfanyl)benzyl]oxy}phenyl)pyrazin-2-amine] |
| 0.208 | Nc1cnc(-c2ccc(C3CCC3)c(OCC3CCC3)c2F)cn1 [Example 82, 5-[4-Cyclobutyl-3-(cyclobutylmethoxy)-2-fluorophenyl]pyrazin-2-amine] |
| 0.0445 | Nc1cnc(-c2ccc(C3CCC3)c(OCc3ccccc3)c2F)cn1 [Example 83, 5-[3-(Benzyloxy)-4-cyclobutyl-2-fluorophenyl]-pyrazin-2-amine] |
| 0.0281 | Nc1cnc(-c2ccc(C3CCC3)c(OCc3ccc(C(=O)O)o3)c2F)cn1 [Example 85, 5-{[3-(5-Aminopyrazin-2-yl)-6-cyclobutyl-2-fluorophenoxy]methyl}furan-2-carboxylic acid] |
| 0.0062 | Cc1cc(N)nc(Oc2c(C3CCC3)ccc(-c3cnc(N)cn3)c2F)n1 [Example 86, 2-[3-(5-Aminopyrazin-2-yl)-6-cyclobutyl-2-fluorophenoxy]-6-methylpyrimidin-4-amine] |
| 0.0021 | Nc1cnc(-c2ccc(C3CCC3)c(Oc3nccc(-c4ccccc4)n3)c2F)cn1 [Example 87, 5-{4-Cyclobutyl-2-fluoro-3-[(4-phenylpyrimidin-2-yl)oxy]phenyl}pyrazin-2-amine] |
| 0.0035 | CSc1ccnc(Oc2c(C3CCC3)ccc(-c3cnc(N)cn3)c2F)n1 [Example 88, 5-(4-Cyclobutyl-2-fluoro-3-{[4-(methylsulfanyl)pyrimidin-2-yl]oxy}phenyl)pyrazin-2-amine] |
| 0.0053 | Cc1cc(C)nc(Oc2c(C3CCC3)ccc(-c3cnc(N)cn3)c2F)n1 [Example 89, 5-{4-Cyclobutyl-3-[(4,6-dimethylpyrimidin-2-yl)oxy]-2-fluorophenyl}pyrazin-2-amine] |
| 0.0538 | CC(C)c1ccnc(Oc2c(C3CCC3)ccc(-c3cnc(N)cn3)c2F)n1 [Example 90, 5-(4-Cyclobutyl-2-fluoro-3-{[4-(1-methylethyl)pyrimidin-2-yl]oxy}phenyl)pyrazin-2-amine] |
| 0.0008 | Nc1cnc(-c2ccc(C3CCC3)c(Oc3nccc(-c4cccs4)n3)c2F)cn1 [Example 91, 5-{4-Cyclobutyl-2-fluoro-3-[(4-thiophen-2-ylpyrimidin-2-yl)oxy]phenyl}pyrazin-2-amine] |
| 0.0052 | COc1ccnc(Oc2c(C3CCC3)ccc(-c3cnc(N)cn3)c2F)n1 [Example 93, 5-{4-Cyclobutyl-2-fluoro-3-[(4-methoxypyrimidin-2-yl)oxy]phenyl}pyrazin-2-amine] |
| 0.0445 | COc1cnc(Oc2c(C3CCC3)ccc(-c3cnc(N)cn3)c2F)nc1 [Example 94, 5-{4-Cyclobutyl-2-fluoro-3-[(5-methoxypyrimidin-2-yl)oxy]phenyl}pyrazin-2-amine] |
| 0.0047 | CS(=O)(=O)c1ccnc(Oc2c(C3CCC3)ccc(-c3cnc(N)cn3)c2F)n1 [Example 95, 5-(4-Cyclobutyl-2-fluoro-3-{[4-(methylsulfonyl)pyrimidin-2-yl]oxy}phenyl)pyrazin-2-amine] |
| 0.0055 | COc1cc(Oc2c(C3CCC3)ccc(-c3cnc(N)cn3)c2F)nc(N)n1 [Example 99, 4-[3-(5-Aminopyrazin-2-yl)-6-cyclobutyl-2-fluorophenoxy]-6-methoxypyrimidin-2-amine] |
| 0.0012 | COc1nc(N)cc(Oc2c(C3CCC3)ccc(-c3cnc(N)cn3)c2F)n1 [Example 100, 6-[3-(5-Aminopyrazin-2-yl)-6-cyclobutyl-2-fluorophenoxy]-2-methoxypyrimidin-4-amine] |
| 0.0018 | Nc1cnc(-c2ccc(C3CCC3)c(Oc3cccc(C(F)(F)F)n3)c2F)cn1 [Example 102, 5-(4-Cyclobutyl-2-fluor-3-{[6-(trifluoromethyl)pyridin-2-yl]oxy}phenyl)pyrazin-2-amine] |
| 0.0183 | Nc1cnc(-c2ccc(C3CCC3)c(Oc3ncc(C(F)(F)F)cn3)c2F)cn1 [Example 104, 5-(4-Cyclobutyl-2-fluoro-3-{[5-(trifluoromethyl)pyrimidin-2-yl]oxy}phenyl)pyrazin-2-amine] |
| 0.0394 | Nc1cnc(-c2ccc(C3CCC3)c(Oc3cnc(C(F)(F)F)cn3)c2F)cn1 [Example 105, 5-(4-Cyclobutyl-2-fluoro-3-{[5-(trifluoromethyl)pyrazin-2-yl]oxy}phenyl)pyrazin-2-amine] |
| 0.0123 | Nc1cnc(-c2ccc(C3CCC3)c(Oc3ccc(C(F)(F)F)nn3)c2F)cn1 [Example 106, 5-(4-Cyclobutyl-2-fluoro-3-{[6-(trifluoromethyl)pyridazin-3-yl]oxy}phenyl)pyrazin-2-amine] |
| 0.0054 | COC(=O)c1ccc(Oc2c(C3CCC3)ccc(-c3cnc(N)cn3)c2F)nc1 [Example 107, Methyl 6-[3-(5-aminopyrazin-2-yl)-6-cyclobutyl-2-fluorophenoxy]pyridine-3-carboxylate] |
| 0.0281 | N#Cc1ccc(Oc2c(C3CCC3)ccc(-c3cnc(N)cn3)c2F)cn1 [Example 108, 5-[3-(5-Aminopyrazin-2-yl)-6-cyclobutyl-2-fluorophenoxy]pyridine-2-carbonitrile] |
| 0.0112 | N#Cc1cc(Oc2c(C3CCC3)ccc(-c3cnc(N)cn3)c2F)ccn1 [Example 109, 4-[3-(5-Aminopyrazin-2-yl)-6-cyclobutyl-2-fluorophenoxy]pyridine-2-carbonitrile] |
| 0.0026 | N#Cc1cccnc1Oc1c(C2CCC2)ccc(-c2cnc(N)cn2)c1F [Example 110, 2-[3-(5-Aminopyrazin-2-yl)-6-cyclobutyl-2-fluorophenoxy]pyridine-3-carbonitrile] |
| 0.0024 | N#Cc1cccc(Oc2c(C3CCC3)ccc(-c3cnc(N)cn3)c2F)n1 [Example 111, 6-[3-(5-Aminopyrazin-2-yl)-6-cyclobutyl-2-fluorophenoxy]pyridine-2-carbonitrile] |
| 0.0136 | N#Cc1ncccc1Oc1c(C2CCC2)ccc(-c2cnc(N)cn2)c1F [Example 112, 3-[3-(5-Aminopyrazin-2-yl)-6-cyclobutyl-2-fluorophenoxy]pyridine-2-carbonitrile] |
| 0.0308 | Nc1cnc(-c2ccc(C3CCC3)c(Oc3ccc(C(F)(F)F)cn3)c2F)cn1 [Example 113, 5-(4-Cyclobutyl-2-fluoro-3-{[5-(trifluoromethyl)pyridin-2-yl]oxy}phenyl)pyrazin-2-amine] |
| 0.0537 | Nc1cnc(-c2ccc(C3CCC3)c(Oc3ccc(S(F)(F)(F)(F)F)cc3)c2F)cn1 [Example 115, 5-{4-Cyclobutyl-2-fluoro-3-[4-(pentafluoro-lambda˜6˜-sulfanyl)phenoxy]phenyl}pyrazin-2-amine] |
| 0.0066 | Nc1cnc(-c2ccc(C3CCC3)c(Oc3nccc(N)n3)c2F)cn1 [Example 119, 2-[3-(5-Aminopyrazin-2-yl)-6-cyclobutyl-2-fluorophenoxy]pyrimidin-4-amine] |
